Measurements reported in ChEMBL document CHEMBL4339208, “6-Bromoindolglyoxylamido derivatives as antimicrobial agents and antibiotic enhancers” (Bioorg Med Chem, 2019).
≈ marks a conversion by molar mass, not a printed value. Calls of active or inactive are those of the source. The rule behind the calls is not given here.

Experiments:
[1] = test system: Acinetobacter baumannii; assay: Antibacterial activity against Acinetobacter baumannii ATCC 19606 at 32 ug/ml measured after 18 hrs by resazurin dye based assay; assay type: functional, organism-based; settings: ATCC 19606 = CIP 70.34 = JCM 6841
[2] = test system: Candida albicans; assay: Antifungal activity against Candida albicans ATCC 90028 at 32 ug/ml measured after 36 hrs; assay type: functional, organism-based
[3] = test system: Cryptococcus neoformans; assay: Antifungal activity against Cryptococcus neoformans ATCC 208821 at 32 ug/ml measured after 36 hrs by resazurin dye based assay; assay type: functional, organism-based
[4] = test system: Acinetobacter baumannii; assay: Antibacterial activity against Acinetobacter baumannii ATCC 19606 measured after 18 hrs by resazurin dye based assay; assay type: functional
[5] = test system: Cryptococcus neoformans; assay: Antifungal activity against Cryptococcus neoformans ATCC 208821 measured after 36 hrs by resazurin dye based assay; assay type: functional; settings: ATCC 208821, 36 h
[6] = test system: Staphylococcus intermedius; assay: Antibacterial activity against Staphylococcus intermedius 1051997 measured after 18 hrs by broth dilution method; assay type: functional; settings: Staphylococcus intermedius, 1051997, 18 h
[7] = test system: Pseudomonas aeruginosa; assay: Antibacterial activity against Pseudomonas aeruginosa ATCC 27853 measured after 18 hrs by broth dilution method; assay type: functional
[8] = test system: Klebsiella pneumoniae; assay: Antibacterial activity against Klebsiella pneumoniae ATCC 700603 at 32 ug/ml measured after 18 hrs by resazurin dye based assay; assay type: functional, organism-based
[9] = Cytotoxicity against HEK293 cells measured after 20 hrs by resazurin dye based fluorescence assay; assay type: cell-based, Homo sapiens; settings: human, HEK293 cells
[10] = test system: Klebsiella pneumoniae; assay: Antibacterial activity against Klebsiella pneumoniae ATCC 700603 measured after 18 hrs by resazurin dye based assay; assay type: functional
[11] = test system: Escherichia coli; assay: Antibacterial activity against Escherichia coli ATCC 25922 measured after 18 hrs by broth dilution method; assay type: functional
[12] = test system: L6; assay: Cytotoxicity against rat L6 cells measured after 72 hrs by alamar blue assay; assay type: cell-based; settings: L6, 72 h
[13] = test system: Candida albicans; assay: Antifungal activity against Candida albicans ATCC 90028 measured after 36 hrs; assay type: functional; settings: ATCC 90028, 36 h
[14] = test system: Pseudomonas aeruginosa; assay: Potentiation of doxycycline-induced antibacterial activity against Pseudomonas aeruginosa ATCC 27853 assessed as concentration required to restore 2 ug/ml doxycycline activity measured after 18 hrs; assay type: functional
[15] = test system: Staphylococcus aureus; assay: Antibacterial activity against Staphylococcus aureus ATCC 25923 measured after 18 hrs by broth dilution method; assay type: functional; settings: ATCC 25923, 18 h
[16] = test system: Erythrocyte; assay: Hemolytic activity against human RBC incubated for 10 mins under shaking condition measured after 1 hr; assay type: ADME, cell-based
[17] = ATCC 19606 = CIP 70.34 = JCM 6841, 18 h
[18] = Klebsiella pneumoniae, 700603, 18 h

Molecule	Activity [1]	Activity [2]	Activity [3]	MIC [4, 17]	MIC [5]	MIC [6]	MIC ([7]; ATCC 27853, 18 h)	Activity [8]	CC50 at 20 h [9]	MIC [10, 18]	MIC ([11]; ATCC 25922, 18 h)	IC50 [12]	MIC [13]	Activity [14]	MIC [15]	HC10 [16]	MIC ([4]; ATCC 19606 = CIP 70.34 = JCM 6841)	MIC [7]	MIC [10]	MIC [11]
CN(C)CCNC(=O)C(=O)c1c[nH]c2cc(Br)ccc12	inactive	inactive	inactive	> 95 µM	> 95 µM	12.5 µM (≈ 4.23 µg/mL)	> 200 µM	inactive	> 95 µM	> 95 µM	> 200 µM	99.5 µM	> 95 µM	>200 µM	> 200 µM	–	–	–	–	–
CC[C@H](C)[C@H](NC(=O)CN)C(=O)NCC(=O)N[C@@H](C)C(=O)N[C@H](C(=O)N[C@@H](CC(C)C)C(=O)N[C@@H](CCCCN)C(=O)N[C@H](C(=O)N[C@@H](CC(C)C)C(=O)N[C@H](C(=O)N[C@H](C(=O)NCC(=O)N[C@@H](CC(C)C)C(=O)N1CCC[C@H]1C(=O)N[C@@H](C)C(=O)N[C@@H](CC(C)C)C(=O)N[C@H](C(=O)N[C@@H](CO)C(=O)N[C@@H](Cc1c[nH]c2ccccc12)C(=O)N[C@H](C(=O)N[C@@H](CCCCN)C(=O)N[C@@H](CCCNC(=N)N)C(=O)N[C@@H](CCCCN)C(=O)N[C@@H](CCCNC(=N)N)C(=O)N[C@@H](CCC(N)=O)C(=O)N[C@@H](CCC(N)=O)C(N)=O)[C@@H](C)CC)[C@@H](C)CC)[C@@H](C)O)[C@@H](C)O)C(C)C)C(C)C [MELITTIN]	–	–	–	–	–	–	–	–	–	–	–	–	–	–	–	2.7 µg/mL	–	–	–	–
O=C(NCCN1CCOCC1)C(=O)c1c[nH]c2cc(Br)ccc12	inactive	inactive	inactive	> 84 µM	> 84 µM	12.5 µM (≈ 4.75 µg/mL)	> 200 µM	inactive	> 84 µM	> 84 µM	> 200 µM	157 µM	> 84 µM	>200 µM	> 200 µM	–	–	–	–	–
OC(Cn1cncn1)(Cn1cncn1)c1ccc(F)cc1F [FLUCONAZOLE]	–	–	–	–	8 µg/mL	–	–	–	–	–	–	–	0.125 µg/mL	–	–	–	–	–	–	–
O=C(NCCCCCCCCCCCCNC(=O)C(=O)c1c[nH]c2cc(Br)ccc12)C(=O)c1c[nH]c2cc(Br)ccc12	inactive	inactive	inactive	> 46 µM	> 46 µM	100 µM (≈ 70 µg/mL)	> 200 µM	inactive	> 46 µM	> 46 µM	> 200 µM	89.1 µM	> 46 µM	>200 µM	> 200 µM	–	–	–	–	–
COLISTIN	–	–	–	–	–	–	–	–	–	–	–	–	–	–	–	–	0.25 µg/mL	2 µM	0.25 µg/mL	1 µM
O=C(NCCCNCCCCCCCCCCNCCCNC(=O)C(=O)c1c[nH]c2cc(Br)ccc12)C(=O)c1c[nH]c2cc(Br)ccc12.O=C(O)C(F)(F)F.O=C(O)C(F)(F)F	–	–	–	31.5 µM	< 0.25 µM	–	24.6 µM	–	6.03 µM	31.5 µM	24.6 µM	12.4 µM	1.97 µM	6.16 µM	12.3 µM	7.88 µM	–	–	–	–
O=C(NCCCNCCCCCCCCCCCCNCCCNC(=O)C(=O)c1c[nH]c2cc(Br)ccc12)C(=O)c1c[nH]c2cc(Br)ccc12.O=C(O)C(F)(F)F.O=C(O)C(F)(F)F	inactive	–	–	> 32 µM	7.67 µM	–	> 200 µM	inactive	9.72 µM	> 32 µM	> 200 µM	1.6 µM	7.67 µM	>200 µM	> 200 µM	2.18 µM	–	–	–	–
O=C(NCCCNCCNC(=O)C(=O)c1c[nH]c2cc(Br)ccc12)C(=O)c1c[nH]c2cc(Br)ccc12	inactive	inactive	inactive	> 52 µM	> 52 µM	50 µM (≈ 30.9 µg/mL)	> 200 µM	inactive	> 52 µM	> 52 µM	> 200 µM	89.3 µM	> 52 µM	>200 µM	12.5 µM (≈ 7.72 µg/mL)	–	–	–	–	–
CN[C@@H]1[C@H](O[C@H]2[C@H](O[C@H]3[C@H](O)[C@@H](O)[C@H](N=C(N)N)[C@@H](O)[C@@H]3N=C(N)N)O[C@@H](C)[C@]2(O)C=O)O[C@@H](CO)[C@H](O)[C@H]1O [STREPTOMYCIN]	–	–	–	–	–	10.7 µM (≈ 6.22 µg/mL)	21.5 µM (≈ 12.5 µg/mL)	–	–	–	21.5 µM (≈ 12.5 µg/mL)	–	–	–	21.5 µM (≈ 12.5 µg/mL)	–	–	–	–	–
O=C(NCCCCNC(=O)C(=O)c1c[nH]c2cc(Br)ccc12)C(=O)c1c[nH]c2cc(Br)ccc12	inactive	inactive	inactive	> 54 µM	> 54 µM	> 200 µM	> 200 µM	inactive	> 54 µM	> 54 µM	> 200 µM	> 150 µM	> 54 µM	>200 µM	> 200 µM	–	–	–	–	–
O=C(NCCCNCCCCCCNCCCNC(=O)C(=O)c1c[nH]c2cc(Br)ccc12)C(=O)c1c[nH]c2cc(Br)ccc12.O=C(O)C(F)(F)F.O=C(O)C(F)(F)F	inactive	–	–	> 33.4 µM	33.4 µM	–	> 200 µM	inactive	17.1 µM	> 33.4 µM	52.2 µM	5.7 µM	8.35 µM	6.52 µM	6.5 µM	18 µM	–	–	–	–
